In patent publication US10898469B2, “Imidazolylamide derivative” (Sumitomo Dainippon Pharma Co., Ltd., priority 2016, dated 2021):

Experiments:
Type in all cases: cell-based, human
[1] = tested on: HCT-116 cells; test: Inhibition test for sphere-forming ability of cancer cells (Test Example 1), HCT-116; conditions: for IC50: HCT-116 cells, concentration for 50% inhibition of cell proliferation, read-out: IC50 (μmol/L) HCT-116 (Sphere IC50 value); for inhibitory effect on the sphere-forming ability of cancer cells: Test Example 1, summary in words, cell line not given (HCT-116, HT-29, FaDu tested)
Method in brief: (§1)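 Luminescent ATP viability readout (CellTiter-Glo) after 4 days of compound exposure gave the concentration for 50% inhibition of sphere proliferation. Cells grew as spheres at 350-800 cells/well under ultra-low attachment in serum-free medium containing B27, EGF and bFGF, with 0.1% final DMSO.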

[2] = tested on: HT-29 cells; test: Inhibition test for sphere-forming ability of cancer cells (Test Example 1), HT-29; conditions: concentration for 50% inhibition of cell proliferation, read-out: IC50 (μmol/L) HT-29 (Sphere IC50 value)
Method in brief: as §1

[3] = tested on: FaDu cells; test: Inhibition test for sphere-forming ability of cancer cells (Test Example 1), FaDu; conditions: concentration for 50% inhibition of cell proliferation, read-out: IC50 (μmol/L) FaDu (Sphere IC50 value)
Method in brief: as §1

[4] = tested on: HCT-116 cells; test: Inhibition test for sphere-forming ability of cancer cells in the presence of BSA (Test Example 2), HCT-116; conditions: for IC50: HCT-116 cells, in the presence of 5% BSA, cultured 4 days; for inhibitory effect on the sphere-forming ability of cancer cells: Test Example 2, in the presence of 5% BSA, summary in words, cell line not given (HCT-116, HT-29, FaDu tested)
Method in brief: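 Spheres grown 4 days in ultra-low-attachment wells, 350-800 cells/well, in DMEM/F12 with 2% B27, 20 ng/mL EGF, 10 ng/mL bFGF, 5 μg/mL insulin and 5% BSA; 0.1% DMSO final. Viable cells read by CellTiter-Glo luminescence; Sphere IC50 (μmol/L) for 50% proliferation inhibition.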

[5] = tested on: HT-29 cells; test: Inhibition test for sphere-forming ability of cancer cells in the presence of BSA (Test Example 2), HT-29; conditions: in the presence of 5% BSA, cultured 4 days
Procedure: (§2) Human colorectal cancer-derived HCT-116 cells, human colon-adenocarcinoma-derived HT-29 cells, and human pharyngeal cancer-derived FaDu cells were available from American Type Culture Collection (ATCC). HCT-116 cells and HT-29 cells were cultured at 37° C. under 5% CO2 using the McCoy's 5a medium containing 10% fetal bovine serum (FBS) and 1% penicillin/streptomycin, and FaDu cells were cultured at 37° C. under 5% CO2 using the MEM medium containing 10% FBS, 1% non-essential amino acid, 1% sodium pyruvate, 5% bovine serum albumin (BSA), and 1% penicillin/streptomycin. HCT-116 cells, HT-29 cells, and FaDu cells were seeded in a 384 Well Black Clear Bottom Ultra-Low Attachment Microplate (Corning Cat. No. 3827) in an amount of 350-800 cells/well using the DMEM/F12 medium containing 2% B27 supplement (GIBCO), 20 ng/mL epidermal growth factor (EGF) (peprotech), 10 ng/mL basic fibroblast growth factor (bFGF) (peprotech), 5 μg/mL insulin (Sigma), 5% bovine serum albumin (BSA), and 1% penicillin/streptomycin. Each test compound was added into each well to adjust the final concentration of DMSO to 0.1%, and the cells were cultured for 4 days. The number of viable cells in each well was then measured with CellTiter-Glo® Luminescent Cell Viability Assay (Promega) to calculate the concentration of each test compound for 50% inhibition of cell proliferation (Sphere IC50 value; μmol/L).
(§3) The experiment of Test Example 2 was performed for each compound of each Example.
(§4) The concentration of each test compound for 50% inhibition of cell proliferation (Sphere IC50 value; μmol/L) is shown in the following Table.

[6] = tested on: FaDu cells; test: Inhibition test for sphere-forming ability of cancer cells in the presence of BSA (Test Example 2), FaDu; conditions: in the presence of 5% BSA, cultured 4 days
Procedure: as §2, §3, §4

IC50 ([1]; Homo sapiens) [µmol/L] | IC50 ([2]; Homo sapiens) [µmol/L] | IC50 ([3]; Homo sapiens) [µmol/L] | IC50 ([4]; Homo sapiens, HCT-116, 96 h) [nM] | IC50 ([5]; Homo sapiens, 96 h) [nM] | IC50 ([6]; Homo sapiens, 96 h) [nM] | IC50 [1] [µmol/L] | IC50 [2] [µmol/L] | IC50 [3] [µmol/L] | IC50 [4] [nM] | IC50 [5] [nM] | IC50 [6] [nM] | Structure (SMILES) | inhibitory effect on the sphere-forming ability of cancer cells [1] | inhibitory effect on the sphere-forming ability of cancer cells [4]
0.89 | 0.54 | 0.73 | 5790 | 4290 | 590 |  |  |  |  |  |  | O=C(/C=C/c1cccnc1)Nc1cn(Cc2cccc(Cl)c2)cn1 [Example 41, (2E)-N-[1-(3-chlorobenzyl)-1H-imidazol-4-yl]-3-(pyridin-3-yl)prop-2-enamide] |  | 
 |  |  |  |  |  | 3.05 | 6.62 | 8.72 | > 10000 | > 10000 | 7030 | COc1ccc(C(=O)Nc2cn(Cc3c(F)ccc(F)c3F)cn2)cc1OC [Example 155] |  | 
 |  |  |  |  |  | 0.61 | 0.46 | 0.59 | 860 | 520 | 480 | O=C(Nc1ccncn1)c1cn(Cc2cccc(Cl)c2)cn1 [Example 261] |  | 
 |  |  |  |  |  | 5.72 | 4.71 | 5.81 | > 10000 | 5600 | 4320 | COc1ccc(C(=O)Nc2cn(Cc3ccccc3F)cn2)cc1OC [Example 144] |  | 
 |  |  |  |  |  | 4.77 | 0.75 | 0.89 | 7750 | 6180 | 2420 | COc1ccc(C(=O)Nc2cn(Cc3cc(F)ccc3F)cn2)cc1OC [Example 149] |  | 
 |  |  |  |  |  | 5.2 | 4.74 | 8 | > 10000 | 6780 | 5060 | COc1ccc(C(=O)Nc2cn(Cc3ccc(F)cc3F)cn2)cc1OC [Example 148] |  | 
 |  |  |  |  |  | 0.77 | 0.7 | 0.71 | 9060 | 5750 | 5190 | Cc1cccc(NC(=O)c2cn(Cc3cccc(Cl)c3)cn2)n1 [Example 258] |  | 
0.15 | 0.89 | < 0.01 | 720 | 580 | 30 |  |  |  |  |  |  | Cl.O=C(/C=C/c1ccc(F)c(O)c1)Nc1cn(Cc2cccc(Cl)c2)cn1 [Example 38] | particularly potent inhibitory effect | 
0.35 | 0.09 | 0.31 | 650 | 550 | 330 |  |  |  |  |  |  | COc1ccc(C(=O)Nc2cn(Cc3ccc(F)c(F)c3)cn2)cc1OC [Example 151, 3,4-dimethoxy-N-[1-(3,4-difluorobenzyl)-1H-imidazol-4-yl]benzamide] | particularly potent inhibitory effect | 
 |  |  |  |  |  | 6.76 | 0.99 | 6 | > 10000 | 6520 | 5900 | CNc1ccc(C(=O)Nc2cn(Cc3cccc(Cl)c3)cn2)cn1 [Example 225] |  | 
0.08 | 0.06 | 0.08 | 690 | 520 | 60 |  |  |  |  |  |  | N#Cc1ccc(/C=C/C(=O)Nc2cn(Cc3cccc(C(F)(F)F)c3)cn2)cc1OCCO [Example 36, (E)-3-(4-Cyano-3-(2-hydroxyethoxy)phenyl)-N-(1-(3-(trifluoromethyl)benzyl)-1H-imidazol-4-yl)acrylamide] | particularly potent inhibitory effect | particularly potent inhibitory effect
 |  |  |  |  |  | 0.71 | 0.8 | 0.88 | > 10000 | 890 | 600 | COc1ccc(C(=O)Nc2cn(Cc3cc(F)cc(F)c3F)cn2)cc1OC [Example 154] |  | 
0.09 | 0.06 | 0.09 | 630 | 580 | 70 |  |  |  |  |  |  | COc1ccc(/C=C/C(=O)Nc2cn(Cc3cccc(C(F)(F)F)c3)cn2)cc1OCCO [Example 34, (2E)-3-[3-(2-hydroxyethoxy)-4-methoxyphenyl]-N-{1[3-(trifluoromethyl)benzyl]-1H-imidazol-4-yl}prop-2-enamide] | particularly potent inhibitory effect | particularly potent inhibitory effect
9.22 | 0.42 | 7.25 | 9840 | 7150 | 6800 |  |  |  |  |  |  | CC(=O)Nc1ccc(C(=O)Nc2cn(Cc3cccc(Cl)c3)cn2)cn1 [Example 247, 6-(Acetylamino)-N-[1-(3-chlorobenzyl)-1H-imidazol-4-yl]nicotinamide] |  | 
 |  |  |  |  |  | 0.31 | 0.06 | 0.08 | 640 | 500 | 70 | CNc1ccc(/C=C/C(=O)Nc2cn(Cc3cccc(Cl)c3)cn2)cn1 [Example 16] | particularly potent inhibitory effect | particularly potent inhibitory effect
0.31 | 0.05 | 0.06 | 630 | 370 | 70 |  |  |  |  |  |  | CC(=O)Nc1ccc(/C=C/C(=O)Nc2cn(Cc3cccc(C(F)(F)F)c3)cn2)cc1 [Example 8, (2E)-3-[4-(acetylamino)phenyl]-N-{1-[3-(trifluoromethyl)benzyl]-1H-imidazol-4-yl}prop-2-enamide] | particularly potent inhibitory effect | particularly potent inhibitory effect
 |  |  |  |  |  | 0.69 | 3.56 | 6.21 | > 10000 | > 10000 | 7810 | COc1ccc(C(=O)Nc2cn(Cc3c(F)cccc3F)cn2)cc1OC [Example 150] |  | 
 |  |  |  |  |  | 0.62 | 0.62 | 0.7 | 1620 | 630 | 340 | COc1ccc(C(=O)Nc2cn(Cc3cccc(F)c3)cn2)cc1OC [Example 145] |  | 
 |  |  |  |  |  | 0.64 | 0.74 | 0.8 | 6020 | 810 | 550 | COc1ccc(C(=O)Nc2cn(Cc3ccc(F)cc3)cn2)cc1OC [Example 146] |  | 

Structure (SMILES) | IC50 ([1]; Homo sapiens) [µmol/L] | IC50 ([2]; Homo sapiens) [µmol/L] | IC50 ([3]; Homo sapiens) [µmol/L] | IC50 ([4]; Homo sapiens, HCT-116, 96 h) [nM] | IC50 ([5]; Homo sapiens, 96 h) [nM] | IC50 ([6]; Homo sapiens, 96 h) [nM] | IC50 [1] [µmol/L] | IC50 [2] [µmol/L] | IC50 [3] [µmol/L] | IC50 [4] [nM] | IC50 [5] [nM] | IC50 [6] [nM] | inhibitory effect on the sphere-forming ability of cancer cells [1] | inhibitory effect on the sphere-forming ability of cancer cells [4]
COc1ccc(NC(=O)c2cn(Cc3cc(F)c(F)c(F)c3)cn2)cc1OC [Example 251, N-(3,4-Dimethoxyphenyl)-1-(3,4,5-trifluorobenzyl)-1H-imidazole-4-carboxamide] | 0.21 | 0.54 | 0.43 | 770 | 600 | 550 |  |  |  |  |  |  |  | 
CCNc1ccc(/C=C/C(=O)Nc2cn(Cc3cccc(Cl)c3)cn2)cn1 [Example 18] |  |  |  |  |  |  | 0.07 | 0.02 | 0.06 | 580 | 50 | 30 | particularly potent inhibitory effect | particularly potent inhibitory effect
O=C(Nc1ccc2c(O)cccc2c1)c1cn(Cc2cccc(Cl)c2)cn1 [Example 256] |  |  |  |  |  |  | 4.97 | 7.24 | 0.65 | 6170 | 6610 | 4410 |  | 
